Clc1cc(Cl)c(OCCBr)c(Cl)c1
solubility (mole fraction)
Conditions	in acetone	in acetonitrile	in ethanol	in isopropanol	in methanol	in n-heptane	in n-propanol
278.1 K	–	–	–	0.00574	0.00356	–	0.0098
278.2 K	0.094	0.0146	0.00698	–	–	0.0388	–
283.1 K	0.105	–	0.00794	–	0.00448	0.047	–
283.2 K	–	0.0176	–	0.00688	–	–	0.0105
288.1 K	0.117	–	–	–	0.00563	0.057	–
288.2 K	–	0.0211	0.0086	0.00825	–	–	0.0113
293.1 K	0.131	0.0253	0.00968	0.0099	–	0.069	–
293.2 K	–	–	–	–	0.0071	–	0.0121
298.1 K	–	–	0.0108	–	–	0.0839	0.013
298.2 K	0.146	0.0304	–	0.0118	0.00892	–	–
303.1 K	–	0.0364	0.012	–	–	–	–
303.2 K	0.163	–	–	0.0142	0.0112	0.102	0.014
308.1 K	–	–	–	–	0.0141	–	0.0151
308.2 K	0.182	0.0437	0.0134	0.017	–	0.123	–
313.1 K	0.203	–	–	0.0204	–	0.15	–
313.2 K	–	0.0525	0.0149	–	0.0177	–	0.0162
318.1 K	–	–	0.0166	0.0245	–	–	0.0174
318.2 K	0.226	0.063	–	–	0.0223	0.182	–
323.1 K	–	–	–	–	0.0281	0.22	–
323.2 K	0.253	0.076	0.0186	0.0294	–	–	0.0187
